# Experimental data as given in US20240034729A9, “HETEROCYCLIC COMPOUND, INTERMEDIATE, PREPARATION METHOD THEREFOR AND APPLICATION THEREOF” (WUHAN LL SCIENCE AND TECHNOLOGY DEVELOPMENT CO., LTD., priority 2018, published 2024).
# Read-outs that look alike come from different tables or passages of the source.
# How the values were obtained:
# [1] = target: hP2X3 (human purinergic P2X receptor subtype 3) (Homo sapiens (Human), UniProt P56373); assay: FLIPR calcium assay, hP2X3 expressed in HEK293 cells; format: cell-based; details: read-out: P2X3 IC50
# hP2X3 (human purinergic P2X receptor subtype 3), sequence (P56373 whole entry): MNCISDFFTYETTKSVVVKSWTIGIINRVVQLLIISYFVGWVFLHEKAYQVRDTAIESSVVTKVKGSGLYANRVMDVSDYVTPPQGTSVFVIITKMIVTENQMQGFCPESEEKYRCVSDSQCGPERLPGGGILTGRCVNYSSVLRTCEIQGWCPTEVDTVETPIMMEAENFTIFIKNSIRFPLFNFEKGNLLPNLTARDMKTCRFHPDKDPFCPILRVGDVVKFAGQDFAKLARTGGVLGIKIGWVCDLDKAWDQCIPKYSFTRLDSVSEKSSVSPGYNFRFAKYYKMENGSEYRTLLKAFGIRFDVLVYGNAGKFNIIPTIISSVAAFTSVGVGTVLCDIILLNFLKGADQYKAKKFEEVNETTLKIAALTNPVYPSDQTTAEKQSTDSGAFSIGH
# [2] = target: hP2X2/3 (heterodimeric receptors formed by human purinergic P2X receptors subtype 2 and subtype 3) (Homo sapiens (Human), UniProt P56373+Q9UBL9); assay: FLIPR calcium assay, hP2X2/3 expressed in HEK293 cells (P2X2/3 receptor selectivity); format: cell-based; details: for IC50: HEK293 cells expressing hP2X2/3, agonist BZ-ATP 5 μM, unit inferred
# hP2X2/3 (heterodimeric receptors formed by human purinergic P2X receptors subtype 2 and subtype 3), sequence (P56373 whole entry): as above
# hP2X2/3 (heterodimeric receptors formed by human purinergic P2X receptors subtype 2 and subtype 3), sequence (Q9UBL9 whole entry): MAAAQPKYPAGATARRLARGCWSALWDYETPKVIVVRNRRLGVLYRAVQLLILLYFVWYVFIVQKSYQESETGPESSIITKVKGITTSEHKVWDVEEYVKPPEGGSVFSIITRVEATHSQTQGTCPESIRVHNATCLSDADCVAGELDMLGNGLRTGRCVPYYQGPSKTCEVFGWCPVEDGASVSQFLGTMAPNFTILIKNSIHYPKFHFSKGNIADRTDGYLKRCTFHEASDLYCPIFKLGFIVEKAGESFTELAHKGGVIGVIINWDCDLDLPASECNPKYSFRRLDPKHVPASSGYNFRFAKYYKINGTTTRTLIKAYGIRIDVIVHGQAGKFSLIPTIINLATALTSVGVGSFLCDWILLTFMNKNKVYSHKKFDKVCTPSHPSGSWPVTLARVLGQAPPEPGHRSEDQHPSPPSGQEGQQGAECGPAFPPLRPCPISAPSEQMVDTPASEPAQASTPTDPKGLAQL
# [3] = HEK293 cells expressing hP2X3, agonist BZ-ATP 2.5 μM, class symbols
Compound,IC50 [1] [nM],also measured
"COC(=O)N1CCO[C@@H](Cc2c(-c3c(F)cc(-c4ccc(C#N)[nH]4)cc3F)nc3cc(C)ccn23)C1 [Compound 138, methyl (S)-2-((2-(2,6-difluoro-4-(5-cyano-1H-pyrrol-2-yl)phenyl)-7-methylimidazo[1,2-a]pyridin-3-yl)methyl)morpholine-4-carboxylate]",< 10,Folds of selectivity [2]: A (key: A: folds of selectivity >1000; B: 200< folds of selectivity ≤1000; C: folds of selectivity ≤200); IC50 [2]: > 60000 nM
COC(=O)N1CCO[C@@H](Cc2c(-c3c(F)cc(NC(C)=O)cc3F)nc3cc(C(F)F)ccn23)C1 [Compound 151],< 10,Folds of selectivity [2]: A (key: A: folds of selectivity >1000; B: 200< folds of selectivity ≤1000; C: folds of selectivity ≤200); IC50 [2]: > 60000 nM
"COC(=O)N1CCO[C@@H](Cc2c(-c3c(F)cc(NC(=O)CC4(C(=O)O)CC4)cc3F)nc3cc(C)ccn23)C1 [Compound 61, (S)-1-(2-((3,5-difluoro-4-(3-((4-(carbomethoxy<methoxycarbonyl>)morpholin-2-yl)methyl)-7-methylimidazo [1,2-a]pyridin-2-yl)phenyl)amino)-2-carbonylethyl)cyclopropanecarboxylic acid]",< 10,Folds of selectivity [2]: A (key: A: folds of selectivity >1000; B: 200< folds of selectivity ≤1000; C: folds of selectivity ≤200); IC50 [2]: > 60000 nM
"COC(=O)N1CCO[C@@H](Cc2c(-c3c(F)cc(NC(C)=O)cc3F)nc3cc(CF)ccn23)C1 [Compound 150, methyl (S)-2-((2-(4-acetamido-2,6-difluorophenyl)-7-(fluoromethyl)imidazo[1,2-a]pyridin-3-yl)methyl)morpholine-4-carboxylate]",< 10,
COC(=O)N1CCO[C@@H](Cc2c(-c3c(F)cc(-c4nc(C(C)(C)O)c[nH]4)cc3F)nc3cc(C)ccn23)C1 [Compound 115],,"IC50 [1, 3]: 200 to 5000 nM"
COC(=O)N1CCO[C@@H](Cc2c(-c3c(F)cc(NC(=O)CC(C)C(N)=O)cc3F)nc3cc(C)ccn23)C1 (stereo partly drawn) [Compound 170],50 to 200,
CNC(=O)c1cc(F)c(C2=CC3C=C(C)C=CN3N2C[C@H]2CN(C(=O)OC)CCO2)c(F)c1 (stereo partly drawn) [Compound 41],,"IC50 [1, 3]: 200 to 5000 nM"
COC(=O)N1CCO[C@@H](Cc2c(-c3ncc(S(N)(=O)=O)nc3Cl)nc3cc(C)ccn23)C1 [Compound 191],< 10,Folds of selectivity [2]: A (key: A: folds of selectivity >1000; B: 200< folds of selectivity ≤1000; C: folds of selectivity ≤200); IC50 [2]: > 60000 nM
COC(=O)N1CCO[C@@H](Cc2c(-c3c(F)cc(Nc4ccco4)cc3F)nc3cc(C)ccn23)C1 [Compound 74],50 to 200,
"CNC(=O)c1cc(F)c(-c2oc3cc(C)cnc3c2C[C@H]2CN(C(=O)OC)CCO2)c(F)c1 [Compound 54, methyl (S)-2-((2-(2,6-difluoro-4-(methylcarbamoyl)phenyl)-6-methylfurano[3,2-b]pyridin-3-yl)methyl)morpholine-4-carboxylate]",< 10,Folds of selectivity [2]: A (key: A: folds of selectivity >1000; B: 200< folds of selectivity ≤1000; C: folds of selectivity ≤200); IC50 [2]: > 60000 nM
COC(=O)N1CCO[C@@H](Cc2c(-c3c(F)cc(NC4CC(=O)C4)cc3F)nc3cc(C)ccn23)C1 [Compound 78],10 to 50,
"CNC(=O)c1cc(F)c(-c2oc3nc(C)ccc3c2C[C@H]2CN(C(=O)OC)CCO2)c(F)c1 [Compound 56, methyl (S)-2-((2-(2,6-difluoro-4-(methylcarbamoyl)phenyl)-6-methylfurano[2,3-b]pyridin-3-yl)methyl)morpholine-4-carboxylate]",< 10,
"COC(=O)N1CCO[C@@H](Cc2c(-c3c(F)cc(S(N)(=O)=O)cc3F)nc3cc(Cl)c(F)cn23)C1 [Compound 183, methyl (S)-2-((7-chloro-2-(2,6-difluoro-4-sulfamoylphenyl)-6-fluoroimidazo[1,2-a]pyridin-3-yl)methyl)morpholine-4-carboxylate]",5.5,
"COC(=O)N1CCO[C@@H](Cc2c(-c3cc(F)c(S(N)(=O)=O)cc3Cl)nc3cc(C)ccn23)C1 [Compound 180, methyl (S)-2-((2-(2-chloro-5-fluoro-4-sulfamoylphenyl)-7-methylimidazo[1,2-a]pyridin-3-yl)methyl)morpholine-4-carboxylate]",0.2,
COC(=O)N1CCO[C@@H](Cc2c(-c3c(F)cc(-c4nc(C#N)c[nH]4)cc3F)nc3cc(F)ccn23)C1 [Compound 106],10 to 50,
"COC(=O)N1CCO[C@@H](Cc2c(-c3c(F)cc(-n4ccc(S(N)(=O)=O)c4)cc3F)nc3cc(C)ccn23)C1 [Compound 134, methyl (S) 2-((2-(2,6-difluoro-4-(3-sulfamoyl-1H-pyrrol-1-yl)phenyl)-7-methylimidazo[1,2-a]pyridin-3-yl)methyl)morpholine-4-carboxylate]",10 to 50,
COC(=O)c1cn(-c2cc(F)c(-c3nc4cc(C)ccn4c3C[C@H]3CN(C(=O)OC)CCO3)c(F)c2)cn1 [Compound 108],,"IC50 [1, 3]: 200 to 5000 nM"
"COC(=O)N1CCO[C@@H](Cc2c(-c3c(F)cc(NC(=O)c4ccc(C(=O)O)cc4)cc3F)nc3cc(C)ccn23)C1 [Compound 85, (S)-4-((3,5-difluoro-4-(3-((4-(carbomethoxy<methoxycarbonyl>)morpholin-2-yl)methyl)-7-methylimidazo[1,2-a]pyridin-2-yl)phenyl)carbamoyl)benzoic acid]",50 to 200,
"COC(=O)N1CCO[C@@H](Cc2c(-c3c(F)cc(-n4cc(OC)cn4)cc3F)nc3cc(C)ccn23)C1 [Compound 129, methyl (S)-2-((2-(2,6-difluoro-4-(4-methoxy-1H-pyrazol-1-yl)phenyl)-7-methylimidazo[1,2-a]pyridin-3-yl)methyl)morpholine-4-carboxylate]",10 to 50,

Compound,IC50 [1] [nM],also measured
"COC(=O)c1cc(F)c(-c2nc3cc(C)ccn3c2C[C@H]2CN(C(=O)OC)CCO2)c(F)c1 [Compound 49, methyl (S)-2-((2-(2,6-difluoro-4-carbomethoxyphenyl)-7-methylimidazo[1,2-a]pyridin-3-yl)-methyl)morpholine-4-carboxylate]",< 10,
COC(=O)N1CCO[C@@H](Cc2c(-c3c(F)cc(-c4ncc(C#N)o4)cc3F)nc3cc(C)ccn23)C1 [Compound 120],< 10,
COC(=O)N1CCO[C@@H](Cc2c(-c3c(F)cc(NC(=O)CC4(C#N)CC4)cc3F)nc3cc(C)ccn23)C1 [Compound 96],10 to 50,
COC(=O)N1CCO[C@@H](Cc2c(-c3c(F)cc(-c4ncco4)cc3F)nc3cc(CF)ccn23)C1 [Compound 123],50 to 200,
COC(=O)N1CCO[C@@H](Cc2c(-c3c(F)cc(-n4cnc(OC)c4)cc3F)nc3cc(C)ccn23)C1 [Compound 112],,"IC50 [1, 3]: 200 to 5000 nM"
COC(=O)N1CCO[C@@H](Cc2c(-c3c(F)cc(-n4cnc(C5(C(=O)O)CC5)c4)cc3F)nc3cc(C)ccn23)C1 [Compound 113],,"IC50 [1, 3]: 200 to 5000 nM"
COC(=O)N1CCC[C@@H](Cc2c(-c3c(F)cc(S(N)(=O)=O)cc3F)nc3cc(Cl)ccn23)C1 [Compound 188],9,
COC(=O)N1CCO[C@@H](Cc2c(-c3c(F)cc(C4(N)COC4)cc3F)nc3cc(C)ccn23)C1 [Compound 70],10 to 50,
COC(=O)N1CCO[C@@H](Cc2c(-c3cnc(NC(C)=O)[nH]3)nc3cc(C)ccn23)C1 [Compound 1],,"IC50 [1, 3]: 200 to 5000 nM"
"COC(=O)N1CCO[C@@H](Cc2c(-c3c(F)cc(-n4cnnc4)cc3F)nc3cc(C)ccn23)C1 [Compound 143, methyl (S)-2-((2-(2,6-difluoro-4-(4H-1,2,4-triazol-4-yl)phenyl)-7-methylimidazo[1,2-a]pyridin-3-yl)methyl)morpholine-4-carboxylate]",< 10,
"COC(=O)N1CCO[C@@H](Cc2c(-c3c(F)cc(-n4cncn4)cc3F)nc3cc(C)ccn23)C1 [Compound 142, methyl (S)-2-((2-(2,6-difluoro-4-(1H-1,2,4-triazol-1-yl)phenyl)-7-methylimidazo[1,2-a]pyridin-3-yl)methyl)morpholine-4-carboxylate]",< 10,
COC(=O)N1CCO[C@@H](Cc2c(-c3c(F)cc(NCCCC(N)=O)cc3F)nc3cc(C)ccn23)C1 [Compound 77],< 10,
COC(=O)N1CCO[C@@H](Cc2c(-c3c(F)cc(-n4cnnn4)cc3F)nc3cc(C)ccn23)C1 [Compound 58],,Folds of selectivity [2]: A (key: A: folds of selectivity >1000; B: 200< folds of selectivity ≤1000; C: folds of selectivity ≤200); IC50 [2]: > 60000 nM
COC(=O)N1CCO[C@@H](Cc2c(-c3c(F)cc(-n4cc[nH]c4=O)cc3F)nc3cc(C)ccn23)C1 [Compound 98],10 to 50,
COC(=O)N1CCO[C@@H](Cc2c(-c3c(F)cc(-n4cnc(N)c4)cc3F)nc3cc(C)ccn23)C1 [Compound 111],10 to 50,
"COC(=O)N1CCO[C@@H](Cc2c(-c3c(F)cc(-c4nc(C(=O)O)co4)cc3F)nc3cc(C)ccn23)C1 [Compound 114, (S)-2-(3,5-difluoro-4-(3-((4-(methoxycarbonyl)morpholin-2-yl)methyl)-7-methylimidazo[1,2-a]pyridin-2-yl)phenyl)oxazole-4-carboxylic acid]",10 to 50,
COC(=O)N1CCO[C@@H](Cc2c(-c3c(F)cc(NC(=O)c4ccncc4)cc3F)nc3cc(C)ccn23)C1 [Compound 86],10 to 50,
"COC(=O)N1CCO[C@@H](Cc2c(-c3c(F)cc(-n4cnc(C(C)(C)O)c4)cc3F)nc3cc(C)ccn23)C1 [Compound 117, methyl (S)-2-((2-(2,6-difluoro-4-(4-(2-hydroxypropan-2-yl)-1H-imidazol-1-yl)phenyl)-7-methylimidazo[1,2-a]pyridin-3-yl)methyl)morpholine-4-carboxylate]",10 to 50,
